Data from patent US9340577B2, “HLA binding motifs and peptides and their uses” (priority 1992, dated 2016).
pIC50: −log10 of the molar value. Read-outs that look alike come from different tables or passages of the source. No end group written: not given here.

Columns and labels:
Assay in all cases: biochemical
DR7 (DRB1*0701) = DR7 (DRB1*0701) (Homo sapiens, UniProt P01903+P01911, A100R/A102G/A103Q/D57E/D86V/E43K/F76Y/K127E/L162R/M171V/P40G/Q125H/Q99D/R33Q/R42Y/R54Q/S133A/S66F/T210M/V115G/Y107V/Y59L/Y89S); format: binding
DRB1*1501 = DRB1*1501 (Homo sapiens, UniProt P01903+P01911); format: binding
DRB4*0101 = DRB4*0101 (Homo sapiens, UniProt P01903+P13762, G164S); format: binding
DRB1*1302 = DRB1*1302 (Homo sapiens, UniProt P01903+P01911, A100E/A169T/K41T/L162R/M171V/P40S/Q125H/Q178H/Q39Y/Q99D/R42S/S66N/T262R/V115G/W38E/Y61H); format: binding
DRB1*1101 = DRB1*1101 (Homo sapiens, UniProt P01903+P01911, A100R/A169T/A87E/I96F/K41T/L162R/M171V/P40S/Q125H/Q178H/Q39Y/Q99D/R42S/S66Y/T262R/V115G/W38E)
DRB5*0101 = DRB5*0101 (Homo sapiens, UniProt P01903+Q30154)
DRB1*0802 = DRB1*0802 (Homo sapiens, UniProt P01903+P01911, A100R/A103L/A169T/F76Y/H45Y/I96F/K41T/L162R/M171V/P40S/Q125H/Q178H/Q39Y/Q99D/R218S/R42G/S66Y/V115G/W38E); format: binding
DRB1*0901 = DRB1*0901 (Homo sapiens, UniProt P01903+P01911, A100R/A103E/D57H/D86V/F55Y/F60I/F76Y/I96F/K127E/L162R/M171V/P40D/Q125H/Q99R/R33Q/R42F/S133A/S66N/T210M/V115G/W38K/Y107V/Y59G/Y89S); format: binding
DR1 (DRB1*0101) = DR1 (DRB1*0101) (Homo sapiens, UniProt P01903+P01911, A100R/D57E/F55L/F60I/F76Y/I96L/L162R/M171V/P40L/Q125E/R42F/V115G/Y59C); format: binding
DR4w4 (DRB1*0401) = DR4w4 (DRB1*0401) (Homo sapiens, UniProt P01903+P01911, A100K/A169T/F76Y/I96L/K127E/L162R/M171V/N62H/P40V/Q125Y/R42H/S133A/S149N/S66Y/V115G/V209L/W38E); format: binding
A*6802 = A*6802 (Homo sapiens, UniProt P04439, A269V/D140Y/D185E/E176V/E277Q/E87N/F33Y/G231S/I121R/I166T/I218V/L180W/L300P/L318F/N151K/P208A/P217A/Q86R/R138H/R169H/S129P/T345S/V36M); format: binding

Chain of DRB1*1302 (P01903 26-254 limits assumed, other chains not shown): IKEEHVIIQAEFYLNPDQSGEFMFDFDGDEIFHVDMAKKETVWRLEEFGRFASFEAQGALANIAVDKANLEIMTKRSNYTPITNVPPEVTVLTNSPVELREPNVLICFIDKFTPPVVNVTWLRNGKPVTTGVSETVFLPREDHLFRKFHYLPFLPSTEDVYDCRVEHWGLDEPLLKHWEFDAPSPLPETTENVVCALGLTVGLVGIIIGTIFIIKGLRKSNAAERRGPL
Chain of DRB1*1101 (P01903 26-254 limits assumed, other chains not shown): as above

Compound	pIC50 (DR7 (DRB1*0701))	pIC50 (DRB1*1501)	pIC50 (DRB4*0101)	pIC50 (DRB1*1302)	pIC50 (DRB1*0802)	pIC50 (DRB1*0901)	pIC50 (DRB5*0101; Binding affinity DRB5 *0101)	other results
CC[C@H](C)[C@H](NC(=O)[C@@H](NC(=O)[C@H](CCSC)NC(=O)[C@H](Cc1ccc(O)cc1)NC(=O)CNC(=O)[C@@H](NC(=O)[C@H](CO)NC(=O)[C@@H](NC(=O)[C@H](CCC(N)=O)NC(=O)[C@@H](NC(=O)[C@H](CO)NC(=O)[C@H](CC(N)=O)NC(=O)[C@@H]1CCCN1C(=O)[C@@H](NC(=O)[C@@H](N)[C@@H](C)O)[C@@H](C)CC)C(C)C)[C@@H](C)CC)C(C)C)[C@@H](C)O)C(=O)O [Peptide 1601.42]	8.05	8.00	7.80					
CC[C@H](C)[C@H](NC(=O)[C@@H](N)Cc1c[nH]c2ccccc12)C(=O)N[C@H](C(=O)N[C@@H](CCC(N)=O)C(=O)N[C@@H](CS)C(=O)N[C@@H](Cc1ccccc1)C(=O)N[C@@H](CC(C)C)C(=O)N1CCC[C@H]1C(=O)N[C@H](C(=O)N[C@@H](Cc1ccccc1)C(=O)N[C@@H](CC(C)C)C(=O)N[C@@H](C)C(=O)N[C@@H](CCC(N)=O)C(=O)N1CCC[C@H]1C(=O)N1CCC[C@H]1C(=O)N[C@@H](CO)C(=O)NCC(=O)N[C@@H](CCC(N)=O)C(=O)N[C@@H](CCCNC(=N)N)C(=O)N[C@@H](CCCNC(=N)N)C(=O)O)C(C)C)[C@@H](C)O [Peptide F189.02]		6.14	6.16	4.63				
CC[C@H](C)[C@H](NC(=O)[C@H](CCCCN)NC(=O)[C@H](CC(N)=O)NC(=O)[C@@H](NC(=O)[C@@H](NC(=O)[C@H](CC(C)C)NC(=O)[C@@H](NC(=O)[C@H](CO)NC(=O)[C@H](CC(C)C)NC(=O)[C@H](C)N)[C@@H](C)O)C(C)C)C(C)C)C(=O)N[C@@H](CCCNC(=N)N)C(=O)NCC(=O)N[C@H](C(=O)N[C@@H](Cc1ccccc1)C(=O)N[C@@H](CCCCN)C(=O)O)[C@@H](C)O [Peptide F196.09]		6.80	6.67	8.12				pIC50 (DRB1*1101): 7.49; pIC50 (DRB5*0101): 7.42
ACSWGMVMLMLVRFK [Peptide 89.0043]	< 4.70		6.33		5.54	4.98	5.25	pIC50 (DRB1*1101; Binding affinity DRB1 *1101): 6.17
ACSWGMVVLLLVRYK [Peptide 89.0004]		6.06	5.82		5.32	5.70	< 4.70	pIC50 (DR1 (DRB1*0101)): 5.99; pIC50 (DR4w4 (DRB1*0401)): 6.15
EIYIIEETTCTLVAG [Peptide 90.0251]			5.96	5.95				
GHQVVPPMAVSKAKA [Peptide 90.0011]	5.20		7.18	5.59	5.79		5.27	pIC50 (DR4w4 (DRB1*0401)): 6.35; pIC50 (DRB1*1101; Binding affinity DRB1 *1101): 5.69
LLLPPLERLTL [Peptide 73.0157]								pIC50 (A*6802): < 4.70
LQLPPLERLTV [Peptide 73.0158]								pIC50 (A*6802): < 4.70
LVQLKCPPLLITSNI [Peptide 89.0021]			6.63		< 4.70	< 4.70	< 4.70	pIC50 (DR1 (DRB1*0101)): 7.14; pIC50 (DR4w4 (DRB1*0401)): 5.37; pIC50 (DRB1*1101; Binding affinity DRB1 *1101): < 4.70
NKALQAIELQLTLET [Peptide 89.0151]	5.92	< 4.70	7.49	5.74		4.77	6.34	pIC50 (DR1 (DRB1*0101)): 7.10
RLTVSKLMSQLLNIP [Peptide 89.0100]	5.30	< 4.70	5.32	8.14	< 4.70	< 4.70	< 4.70	pIC50 (DRB1*1101; Binding affinity DRB1 *1101): < 4.70
RTLHDLCQA [Peptide 1481.46]								pIC50 (A*6802): < 4.70
SWGMVMLMLVRFKCA [Peptide 89.0044]	< 4.70		5.84	6.01	5.00	< 4.70	5.30	pIC50 (DR1 (DRB1*0101)): 5.31; pIC50 (DR4w4 (DRB1*0401)): 5.47
TLHDLCQAL [Peptide 1481.47]								pIC50 (A*6802): < 4.70
TNCMLIQPPKLRSTA [Peptide 89.0046]	5.95	5.29	6.32	5.29		< 4.70		pIC50 (DRB1*1101; Binding affinity DRB1 *1101): 5.96
VTAKELKFV [Peptide 1418.24]								pIC50 (A*6802): < 4.70
